According to patent publication US11111232B2, “Substituted cyclobutylpyridine and cyclobutylpyrimidine compounds as indoleamine 2,3-dioxygenase (IDO) inhibitors” (MERCK SHARP & DOHME CORP., priority 2017, dated 2021):

Molecular target: IDO1 (Homo sapiens, UniProt P14902)
Test: IDO1 HEK293 cellular assay
Assay type: cell-based
Conditions: HEK293 cells transfected with Flag-IDO1 vector, 20-24 hours, fluorescence readout
Procedure: IDO1 HEK293 Cellular Assay
Compounds to be tested were serially diluted in ten 3-fold steps in DMSO starting from 10 mM DMSO stocks. Compound dilutions or DMSO alone were then dispensed from the dilution plate into a Greiner black 384-well assay plate (catalog #781086) using an Echo 550 acoustic liquid handler (Labcyte).
HEK293 cell pellets were resuspended to 5×10^5 cells/mL in complete HEK293 culture media (89% DMEM, 10% FBS, 1% penicillin/streptomycin). Suspended cells (2 mL) were dispensed into each well of a 6-well Corning plate (Catalog # 3516). Cells were allowed to attach and were incubated for 20 hours at 37° C. in a 5% CO2 incubator. Flag-IDO1 vector (Genscript True ORF Gold, 2 ug) in 150 uL of Opti-MEM medium was added to each well of a Corning 24 well plate (Cat # 3527) and incubated for 5 minutes at room temperature. To each well of the 24-well plate was added […] Lipofectamine 2000 (Gibco) and the plate incubated at room temperature for 20-30 minutes. To each well of attached cells in the 6-well plate, […] of the transfection mix from the 24-well plate was gently added to each well and IDO1 protein was allowed to express for 24-30 hours at 37 degrees Celsius in a 5% CO2 incubator.
Media was removed from the cells which were then washed with 2 mL Dulbecco's phosphate-buffered saline (DPBS). After removal of DPBS, 0.5 mL of TrypLE (Gibco) was added and incubated at 5 minutes until cells lift from the surface of the wells. Complete HEK293 culture media (4 mL) was added to each well and cells were collected and pooled into a conical tube. Cells were pelleted at 200×g for 5 minutes and resuspended in an equal volume of complete DMEM medium. Cells were diluted to 4×10^5 cells per mL in complete HEK293 media. L-Tryptophan was added to added to give a final concentration of […]. The diluted transfected cells […] or nontransfected cells […] were dispensed into wells of Greiner black 384-well assay plates (catalog #781086) containing previously diluted compounds. The plate is briefly mixed and centrifuged at 200×g for 10 seconds to collect cells at the bottom of the plate. Plates were covered and incubated for 20-24 hours at 37 degrees C. in a 5% CO2 incubator. Afterwards […] of 0.5 M methyl isonipecotate in dimethyl sulfoxide was added to each well, mixed, sealed, and centrifuged at 500 rpm for 10 seconds. Plates were incubated at 37 degrees in a 5% CO2 incubator overnight to develop fluoresence. The plates are allowed to cool and then centrifuged for 1 minute at 1000×g. The resulting fluoresence was measured in an Envision plate reader (Perkin Elmer) with a 400/25 nm excitation filter and an 510/20 nm emission filter.
The fluoresence intensity of each well was corrected for the background observed in wells with untransfected cells and was expressed as a fraction of the intensity observed in wells of IDO1 transfected cells and DMSO only. Potencies were calculated by linear least squares fit to the four parameter logistic IC50 equation.

Sequence of IDO1 (P14902 whole entry): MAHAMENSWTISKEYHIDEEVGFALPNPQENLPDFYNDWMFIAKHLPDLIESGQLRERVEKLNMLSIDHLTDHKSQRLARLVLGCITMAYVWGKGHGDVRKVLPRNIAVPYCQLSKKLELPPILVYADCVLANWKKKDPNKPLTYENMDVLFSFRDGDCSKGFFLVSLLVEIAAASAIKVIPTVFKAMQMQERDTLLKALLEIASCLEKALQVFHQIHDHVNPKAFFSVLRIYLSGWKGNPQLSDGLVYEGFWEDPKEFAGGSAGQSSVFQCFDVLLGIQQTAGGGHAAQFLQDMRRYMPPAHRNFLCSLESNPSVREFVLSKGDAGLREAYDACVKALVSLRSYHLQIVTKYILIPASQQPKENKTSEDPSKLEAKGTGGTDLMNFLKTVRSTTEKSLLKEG

IC50: 7 nM
Compound: O=C(Nc1ccc(C2(C(=O)Nc3ccc(F)cc3)CCC2)cn1)C1CCCCC1 [Example 15, N-(5-{1-[(4-fluorophenyl)carbamoyl]cyclobutyl}pyridin-2-yl) cyclohexanecarboxamide]
